Values after ≈ are worked out from the molar mass of the structure shown.
How the values were obtained:
brain cancer line U87MG [1] = details: previously established; PTEN mutation, constitutive mTOR activation; cited from earlier work
[2] = system: breast cancer line MDA435; details: previously established; no PTEN mutation; cited from earlier work
brain cancer line U87MG [3] = experiment: In vitro anticancer test: growth inhibition in U87MG tumour cells; assay type: cell-based; details: Homo sapiens, U-87 MG, PTEN mutant, multi-dose testing
Procedure: (§1) The in vitro anticancer activity of LL-D45042 is determined by measuring the concentration of compound required to inhibit the growth of 50% of cells in two tumour cell lines. […] The elevated sensitivity is due to its genetic mutation in the PTEN tumor suppressor gene leading to constitutive activation of mTOR signaling pathway. […] LL-D45042 is also evaluated in a binding assay of FKBP12, a cellular receptor of rapamycin, to determine its binding affinity. The results are given in Table 2, with IC50's reported in units of ng/mL.
(§2) These determinations are made by multi-dose testing of LL-D45042 and direct comparisons to the reference samples.

FKBP12 = FKBP12 (Homo sapiens, UniProt P62942); experiment: FKBP12 binding assay; details: FKBP12, a cellular receptor of rapamycin; read-out: Protein Binding, FKBP (IC50) (converted)
Chain of FKBP12 (P62942 whole entry, species assumed): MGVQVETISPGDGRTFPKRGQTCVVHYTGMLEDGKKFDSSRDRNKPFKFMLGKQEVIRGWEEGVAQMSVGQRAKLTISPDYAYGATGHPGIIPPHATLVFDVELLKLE
Procedure: as §1, §2

[4] = system: breast cancer line MDA435; experiment: In vitro anticancer test: growth inhibition in MDA435 tumour cells; assay type: cell-based; details: no PTEN mutation, multi-dose testing
Procedure: as §1, §2

IC50 (brain cancer line U87MG [3]) [µg/mL]	IC50 (FKBP12) [nM]	IC50 [4] [µg/mL]	Structure (SMILES)	Sensitivity of U87MG to growth inhibition (brain cancer line U87MG [1])	Sensitivity of MDA435 to growth inhibition [2]
–	–	–	CO[C@H]1C[C@@H]2CC[C@@H](C)[C@@](O)(O2)C(=O)C(=O)N2CCCC[C@H]2C(=O)O[C@H]([C@H](C)C[C@@H]2CC[C@@H](O)[C@H](OC)C2)CC(=O)[C@H](C)/C=C(\C)[C@@H](O)[C@@H](OC)C(=O)[C@H](C)C[C@H](C)/C=C/C=C/C=C/1C [rapamycin, Rapamycin]	highly sensitive	rapamycin-resistant phenotype
0.035 (≈ 0.0401 µM)	401	> 1	CO[C@@H]1C[C@H](C[C@@H](C)[C@@H]2CC(=O)[C@H](C)/C=C(\C)[C@@H](O)[C@@H](O)C(=O)[C@H](C)C[C@H](C)/C=C/C=C/C=C(\C)[C@@H](O)C[C@@H]3CC[C@@H](C)[C@](O)(CC(=O)N4CCCC[C@H]4C(=O)O2)O3)CC[C@H]1O [LL-D45042]	–	–

Reference: US7019014B2, “Process for producing anticancer agent LL-D45042” (Wyeth Holdings Corporation, priority 2003, dated 2006)
